# Measured values published in article PMC11062894, “Protein-based bandpass filters for controlling cellular signaling with chemical inputs” (Nature Chemical Biology, 2023).
# Tested on: GEMS receptors with CBPA11 (BclXL–LD3 and BclXLhigh variants), STAT3-driven SEAP in HEK293T cells
# Experiment: GEMS SEAP reporter assay, CBPA11 (BclXLhigh, LD3-v and BclXL-v variants) with A-1155463
# Format: cell-based
# Parameters: key to Raw data (SEAP) / SEAP, replicate values / Raw data of Figure 5b / Raw data Figure 5e / Raw data of Independent repeat of CBPA11-v1 vs CBPA11-v1-LD3v3 / Raw data of Independent repeat of CBPA11-v3 vs CBPA11-v3-LD3v3 / Raw data of Figure 5b, CBPA11-v1-LD3v3 (SEAP reporter raw value, single replicate) / Raw data of Figure 5b, CBPA11-v1 (SEAP reporter raw value, single replicate): SEAP activity in U/L in culture supernatant
# Source text: To rationally design a CBP responding to a chemical input, we used BclXL as the druglow receptor, LD3 as the designed binder and a designed BclXL variant as the drughigh receptor (referred to as BclXLhigh) to construct a CBP responsive to BclXL inhibitors (Fig. 4a). To design BclXLhigh, we used a multistate design computational protocol described elsewhere[26] […] Thus, BclXLhigh-v(1–3) were chosen as the functional drughigh receptors, resulting in three A-1155463-controlled CBPs (referred to as CBPA11-v(1–3)) (Fig. 4c–e).
# HEK293T cells were seeded in a 96-well plate 24 h before transfection. The transfection mix in each well consisted of 3 ng of constitutive human CMV promoter driven mammalian STAT3 expression vector (PhCMV-STAT3-pA), 30 ng of STAT3-induced reporter expression (OStat3-PhCMVmin-SEAP-pA) and 50 ng of expression vectors for each GEMS receptor chain (PSV40-IgK-(drughigh receptor)-EpoRm-IL-6RBm-pA and PSV40-IgK-(druglow receptor-GGGGSX3-LD3)-EpoRm-IL-6RBm-pA). For the specific drughigh receptor and druglow receptor used in the different cellular assays, they are indicated as wild type or with mutations. Then, plasmid DNA was mixed with 50 μl opti-MEM (Thermo Fisher) and 600 ng of polyethyleneimine (Polysciences, catalog no. 24765-1). For drug treatment experiments, drugs were added 12 h post-transfection and incubated with cells for 24 h before the SEAP reporter detection assay.
# SEAP activity (U l^−1) in cell culture supernatants was quantified by kinetic measurements at 405 nm (1 minute per measurement for 30 cycles) of absorbance increase due to phosphatase-mediated hydrolysis of para-nitrophenyl phosphate (pNPP).
# Binding affinities of SPR drug competition assays were calculated using three-parameter nonlinear regression in GraphPad Prism (v.8.3.0). Representative data of cell assays are presented as individual values and mean values (bars). n = 3 refers to biological replicates. All IC50 or EC50 values of cell assays reported were calculated using four-parameter nonlinear regression ± s.d. Bandpass features of cutoff concentrations and Bandwidth90% were estimated based on the curve fitted using bell-shaped curve nonlinear regression in GraphPad Prism (v.8.3.0). […]
# Supplementary Figure 4: Design, screening and validation of BclXLhigh variants. a) Screening of BclXLhigh variants in the GEMS platform. […]
# Dissociation constant measurement of BclXLhigh-v(1-3) and LD3. Equilibrium curves are fitted using […]
# BclXLhigh-v1 (purple), BclXLhigh-v2 (blue), […]
# a) Bcl2high-based bandpass filter designs were developed and to respond to different concentrations of […]
# corresponding inhibitor. c) Screening of Bcl2high-based bandpass filter variants in the GEMS platform.
# The designed binder LD3 was fused to the druglow-receptor (PSV40-IgK-Bcl2-LD3-EpoRm-IL-6RBm-pA) in one EpoR chain and Bcl2high variants with the insensitive Bcl2 (iBcl2) as control in the other EpoR chain (PSV40-IgK-Bcl2high-EpoRm-IL-6RBm-pA). HEK293T cells were transfected with indicated […]
# the mean of six biological replicates ± s.d., overlaid with a scatter dot plot of the original data points.
# (1 picture or pasted object on this page, not shown here)
# Supplementary Figure 6: Binding affinities and drug resistances of Bcl2high-v(2,4,5) assessed by […]
# a) Measurement of dissociation constants for Bcl2high-v(2,4,5) and LD3 interactions. Equilibrium curves […]
# Bcl2high-v(2,4,5) measured by SPR. 5 μM of Bcl2 or indicated variants were mixed with 10 μM of […]
# Bcl2high-v2 (red), Bcl2high-v4
# Supplementary Figure 7: Screening of LD3 variants in CBPA11-v(1-3) and raw data of CBPA11-v(1,3) with LD3-v3 variant. a-c) Screening of LD3 and LD3-v(1-3) variants in complex with BclXL for more sensitive CBPA11-v1 (a), CBPA11-v2 (b), CBPA11-v3 (c) in the GEMS platform. The LD3 variants replaced the role of LD3 (PSV40-IgK-BclXL-LD3-v(1-3)-EpoRm-IL-6RBm-pA) in one EpoR chain and BclXLhigh-v(1-3) in the other EpoR chain (PSV40-IgK-BclXLhigh-V(1-3)-EpoRm-IL-6RBm-pA). HEK293T cells were transfected with […]
# [1] = SuppFigure 9a, BclXL, A-1155463 3.16 nM
# [2] = SuppFigure 9a, BclXL, A-1155463 100 nM
# [3] = SuppFigure 9a, BclXL, A-1155463 316 nM
# [4] = SuppFigure 9a, BclXL, A-1155463 1000 nM
# [5] = SuppFigure 9a, BclXL, A-1155463 3160 nM
# [6] = SuppFigure 9a, BclXL, A-1155463 10000 nM
# [7] = SuppFigure 9b, BclXL-v1, A-1155463 1 nM
# [8] = SuppFigure 9b, BclXL-v1, A-1155463 3.16 nM
# [9] = SuppFigure 9b, BclXL-v1, A-1155463 10 nM
# [10] = SuppFigure 9b, BclXL-v1, A-1155463 31.6 nM
# [11] = SuppFigure 9b, BclXL-v1, A-1155463 100 nM
# [12] = SuppFigure 9b, BclXL-v1, A-1155463 316 nM
# [13] = SuppFigure 9b, BclXL-v1, A-1155463 1000 nM
# [14] = SuppFigure 9b, BclXL-v1, A-1155463 3160 nM
# [15] = SuppFigure 9b, BclXL-v1, A-1155463 10000 nM
# [16] = SuppFigure 9b, BclXL-v2, A-1155463 1 nM
# [17] = SuppFigure 9b, BclXL-v2, A-1155463 3.16 nM
# [18] = SuppFigure 9b, BclXL-v2, A-1155463 10 nM
# [19] = SuppFigure 9b, BclXL-v2, A-1155463 31.6 nM
# [20] = SuppFigure 9b, BclXL-v2, A-1155463 100 nM
# [21] = SuppFigure 9b, BclXL-v2, A-1155463 316 nM
# [22] = SuppFigure 9b, BclXL-v2, A-1155463 1000 nM
# [23] = SuppFigure 9b, BclXL-v2, A-1155463 3160 nM
# [24] = SuppFigure 9b, BclXL-v2, A-1155463 10000 nM
# [25] = SuppFigure 9b, BclXL-v3, A-1155463 1 nM
# [26] = SuppFigure 9b, BclXL-v3, A-1155463 3.16 nM
# [27] = SuppFigure 9b, BclXL-v3, A-1155463 10 nM
# [28] = SuppFigure 9b, BclXL-v3, A-1155463 31.6 nM
# [29] = SuppFigure 9b, BclXL-v3, A-1155463 100 nM
# [30] = SuppFigure 9b, BclXL-v3, A-1155463 316 nM
# [31] = SuppFigure 9b, BclXL-v3, A-1155463 1000 nM
# [32] = SuppFigure 9b, BclXL-v3, A-1155463 3160 nM
# [33] = SuppFigure 9b, BclXL-v3, A-1155463 10000 nM
# [34] = SuppFigure 9b, BclXL, A-1155463 1 nM
# [35] = SuppFigure 9b, BclXL, A-1155463 3.16 nM
# [36] = SuppFigure 9b, BclXL, A-1155463 10 nM
# [37] = SuppFigure 9b, BclXL, A-1155463 31.6 nM
# [38] = SuppFigure 9b, BclXL, A-1155463 100 nM
# [39] = SuppFigure 9b, BclXL, A-1155463 316 nM
# [40] = SuppFigure 9b, BclXL, A-1155463 1000 nM
# [41] = SuppFigure 9b, BclXL, A-1155463 3160 nM
# [42] = SuppFigure 9b, BclXL, A-1155463 10000 nM
# [43] = SuppFigure 9c, LD3, A-1155463 1 nM
# [44] = SuppFigure 9c, LD3, A-1155463 3.16 nM
# [45] = SuppFigure 9c, LD3, A-1155463 10 nM
# [46] = SuppFigure 9c, LD3, A-1155463 31.6 nM
# [47] = SuppFigure 9c, LD3, A-1155463 100 nM
structure (smiles),measurement,setting,value
CN(C)CC#Cc1ccc(OCCCc2sc(N3CCc4cccc(C(=O)Nc5nc6ccccc6s5)c4C3)nc2C(=O)O)c(F)c1 [A-1155463],Normalized data (SEAP),[1],6.043
same,Raw data (SEAP),[1],25.9846
same,Normalized data (SEAP),[2],100
same,Raw data (SEAP),[2],429.99
same,Normalized data (SEAP),[3],92.0518
same,Raw data (SEAP),[3],395.813
same,Normalized data (SEAP),[4],64.9807
same,Raw data (SEAP),[4],279.41
same,Normalized data (SEAP),[5],59.757
same,Raw data (SEAP),[5],256.949
same,Normalized data (SEAP),[6],20.582
same,Raw data (SEAP),[6],88.5006
same,Normalized data (SEAP),[7],29.2402
same,Raw data (SEAP),[7],3.306
same,Normalized data (SEAP),[8],25.4197
same,Raw data (SEAP),[8],2.874
same,Normalized data (SEAP),[9],91.2564
same,Raw data (SEAP),[9],10.3177
same,Normalized data (SEAP),[10],99.5447
same,Raw data (SEAP),[10],11.2548
same,Normalized data (SEAP),[11],88.866
same,Raw data (SEAP),[11],10.0475
same,Normalized data (SEAP),[12],80.3713
same,Raw data (SEAP),[12],9.087
same,Normalized data (SEAP),[13],71.8768
same,Raw data (SEAP),[13],8.127
same,Normalized data (SEAP),[14],100
same,Raw data (SEAP),[14],11.3063
same,Normalized data (SEAP),[15],93.1986
same,Raw data (SEAP),[15],10.5373
same,Normalized data (SEAP),[16],14.254
same,Raw data (SEAP),[16],6.039
same,Normalized data (SEAP),[17],18.0852
same,Raw data (SEAP),[17],7.662
same,Normalized data (SEAP),[18],44.9661
same,Raw data (SEAP),[18],19.0516
same,Normalized data (SEAP),[19],70.6852
same,Raw data (SEAP),[19],29.9485
same,Normalized data (SEAP),[20],100
same,Raw data (SEAP),[20],42.3689
same,Normalized data (SEAP),[21],44.6168
same,Raw data (SEAP),[21],18.9036
same,Normalized data (SEAP),[22],22.2068
same,Raw data (SEAP),[22],9.409
same,Normalized data (SEAP),[23],14.8235
same,Raw data (SEAP),[23],6.281
same,Normalized data (SEAP),[24],14.5729
same,Raw data (SEAP),[24],6.174
same,Normalized data (SEAP),[25],52.1022
same,Raw data (SEAP),[25],4.346
same,Normalized data (SEAP),[26],54.3684
same,Raw data (SEAP),[26],4.535
same,Normalized data (SEAP),[27],49.6336
same,Raw data (SEAP),[27],4.14
same,Normalized data (SEAP),[28],58.6885
same,Raw data (SEAP),[28],4.895
same,Normalized data (SEAP),[29],75.7473
same,Raw data (SEAP),[29],6.318
same,Normalized data (SEAP),[30],55.3616
same,Raw data (SEAP),[30],4.618
same,Normalized data (SEAP),[31],57.9749
same,Raw data (SEAP),[31],4.836
same,Normalized data (SEAP),[32],83.7705
same,Raw data (SEAP),[32],6.988
same,Normalized data (SEAP),[33],90.2218
same,Raw data (SEAP),[33],7.526
same,Normalized data (SEAP),[34],18.8536
same,Raw data (SEAP),[34],4.217
same,Normalized data (SEAP),[35],21.8131
same,Raw data (SEAP),[35],4.879
same,Normalized data (SEAP),[36],73.5481
same,Raw data (SEAP),[36],16.4519
same,Normalized data (SEAP),[37],74.0156
same,Raw data (SEAP),[37],16.5565
same,Normalized data (SEAP),[38],100
same,Raw data (SEAP),[38],22.3689
same,Normalized data (SEAP),[39],57.787
same,Raw data (SEAP),[39],12.9263
same,Normalized data (SEAP),[40],39.6131
same,Raw data (SEAP),[40],8.861
same,Normalized data (SEAP),[41],30.6519
same,Raw data (SEAP),[41],6.8565
same,Normalized data (SEAP),[42],26.3116
same,Raw data (SEAP),[42],5.886
same,Normalized data (SEAP),[43],9.095
same,Raw data (SEAP),[43],7.283
same,Normalized data (SEAP),[44],10.2911
same,Raw data (SEAP),[44],8.241
same,Normalized data (SEAP),[45],55.7186
same,Raw data (SEAP),[45],44.6179
same,Normalized data (SEAP),[46],64.2529
same,Raw data (SEAP),[46],51.4519
same,Normalized data (SEAP),[47],100
same,Raw data (SEAP),[47],80.0772
same,Normalized data (SEAP),"SuppFigure 9c, LD3, A-1155463 316 nM",76.4435
